# Reference: patent US20260042731A1, “(2,4-DICHLOROPHENOXY)ACETIC ACID ANALOGS” (CORTEVA AGRISCIENCE LLC, priority 2022, published 2026)
# Values joined by “and” are separate entries in the source; they are usually repeats but may differ in a detail not shown here. Identical values can stand only once. Like-named read-outs stand apart in the source and are kept apart here.
# How the values were obtained:
# [1] = system: Amaranthus rudis (AMATA), tall water hemp; assay: Postemergence herbicide evaluation, growth of Amaranthus rudis (AMATA); type: in vivo; conditions: Amaranthus tuberculatus, post-emergence, read-out: Ave. AMATA
# [2] = system: Ambrosia artemisiifolia (AMBEL), common ragweed; assay: Postemergence herbicide evaluation, growth of Ambrosia artemisiifolia (AMBEL); type: in vivo; conditions: Ambrosia artemisiifolia, post-emergence, read-out: AVE. AMBEL
# [3] = system: Abutilon theophrasti (ABUTH), velvetleaf; assay: Postemergence herbicide evaluation, growth of Abutilon theophrasti (ABUTH); type: in vivo; conditions: Abutilon theophrasti, post-emergence, read-out: AVE. ABUTH
# [4] = system: Chenopodium album (CHEAL), common lambsquarters; assay: Postemergence herbicide evaluation, growth of Chenopodium album (CHEAL); type: in vivo; conditions: Chenopodium album, post-emergence, read-out: Ave. CHEAL
# [5] = Volatility of compounds measured by thermogravimetric analysis (TGA); type: physicochemical
# [6] = system: weeds ABUTH, AMATA, AMBEL, CHEAL, ERICA; assay: Postemergence herbicide evaluation, overall average % weed control across ABUTH, AMATA, AMBEL, CHEAL and ERICA; type: in vivo; conditions: post-emergence, read-out: Overall Ave % Weed Control
Structure (SMILES),pest or weed control at 280 g/ha ([1]; 168 h),pest or weed control at 280 g/ha ([1]; 336 h),pest or weed control at 560 g/ha ([1]; 336 h),pest or weed control at 280 g/ha ([1]; 504 h),pest or weed control at 560 g/ha ([1]; 504 h),pest or weed control at 560 g/ha ([2]; 168 h),pest or weed control at 280 g/ha ([2]; 336 h),pest or weed control at 280 g/ha ([2]; 504 h),pest or weed control at 560 g/ha ([2]; 504 h),pest or weed control at 280 g/ha ([3]; 504 h),pest or weed control at 560 g/ha ([3]; 504 h),pest or weed control at 280 g/ha ([4]; 168 h),pest or weed control at 560 g/ha ([4]; 168 h),pest or weed control at 280 g/ha ([4]; 336 h),pest or weed control at 560 g/ha ([4]; 336 h),pest or weed control at 280 g/ha ([4]; 504 h),pest or weed control at 560 g/ha ([4]; 504 h),"TGA Data (rate of weight loss, volatility) [5]",pest or weed control at 280 g/ha ([6]; 504 h),pest or weed control at 560 g/ha ([6]; 504 h),further results
O=C(COc1ccc(Cl)cc1Cl)OCCCCCOC(=O)COc1ccc(Cl)cc1Cl [Compound B8],84%,92.5%,96.5%,92.5%,100%,72.5%,90%,100%,100%,97%,99%,80%,82.5%,92.5%,97%,96%,99.5%,0.3521 µg/min and 0.38 µg/min,96.8%,99.7%,pest or weed control at 280 g/ha ([6]; 168 h): 74.3%; pest or weed control at 560 g/ha ([6]; 168 h): 79.8%; pest or weed control at 280 g/ha ([6]; 336 h): 90.4%; pest or weed control at 560 g/ha ([6]; 336 h): 95.9%
O=C(COc1ccc(Cl)cc1Cl)OCCOCCOCCOC(=O)COc1ccc(Cl)cc1Cl [Compound B13],67.5%,95%,87.5%,65%,67.5%,88.5%,72.5%,100%,99%,67.5%,62.5%,80%,82.5%,96.5%,98%,98.5%,95%,0.2318 µg/min,86%,84.5%,pest or weed control at 560 g/ha ([1]; 168 h): 75%; pest or weed control at 280 g/ha ([2]; 168 h): 72.5%; pest or weed control at 560 g/ha ([2]; 336 h): 75%; pest or weed control at 280 g/ha ([3]; 168 h): 55%; pest or weed control at 560 g/ha ([3]; 168 h): 45%; pest or weed control at 280 g/ha ([3]; 336 h): 62.5%; pest or weed control at 560 g/ha ([3]; 336 h): 57.5%; pest or weed control at 280 g/ha ([6]; 168 h): 72%; pest or weed control at 560 g/ha ([6]; 168 h): 75.7%; pest or weed control at 280 g/ha ([6]; 336 h): 83.6%; pest or weed control at 560 g/ha ([6]; 336 h): 82.6%
O=C(COc1ccc(Cl)cc1Cl)OCCCCCCOC(=O)COc1ccc(Cl)cc1Cl [Compound B12],,,,62.5%,62.5%,,,100%,100%,55%,65%,,,,,96.5%,90%,0.2274 µg/min,82%,82.9%,
O=C(COc1ccc(Cl)cc1Cl)OCCCOC(=O)COc1ccc(Cl)cc1Cl [Compound B10],70%,77.5%,80%,67.5%,55%,57.5%,67.5%,90%,75%,25%,27.5%,77.5%,72.5%,75%,90%,88.5%,85%,0.02488 µg/min,72.2%,68%,pest or weed control at 560 g/ha ([1]; 168 h): 62.5%; pest or weed control at 280 g/ha ([2]; 168 h): 62.5%; pest or weed control at 560 g/ha ([2]; 336 h): 67.5%; pest or weed control at 280 g/ha ([3]; 168 h): 27.5%; pest or weed control at 560 g/ha ([3]; 168 h): 22.5%; pest or weed control at 280 g/ha ([3]; 336 h): 25%; pest or weed control at 560 g/ha ([3]; 336 h): 32.5%; pest or weed control at 280 g/ha ([6]; 168 h): 62%; pest or weed control at 560 g/ha ([6]; 168 h): 58%; pest or weed control at 280 g/ha ([6]; 336 h): 64.5%; pest or weed control at 560 g/ha ([6]; 336 h): 69.9%
